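96-well plates; 48 h exposure; 5 concentrations. Endpoints by linear interpolation between flanking doses. Not reached: highest tested concentration assigned. Here, GI50 denotes the concentration required for 50% inhibition of growth. TGI marks complete inhibition of growth.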
Legend:
Experiment in all cases: NCI anticancer screen, dose series, 48 h
[1] = test system: SNB-19 CNS
[2] = test system: SK-MEL-28 melanoma
[3] = test system: MDA-MB-435
[4] = test system: UACC-62 melanoma
[5] = test system: OVCAR-8 ovarian
[6] = test system: A498 renal
[7] = test system: MDA-N
[8] = test system: COLO 205 colon
[9] = test system: SNB-75 CNS
[10] = test system: U251 CNS
[11] = test system: RPMI-8226 leukemia
[12] = test system: HOP-92 NSCLC
[13] = test system: NCI-H226 lung
[14] = test system: SK-MEL-5 melanoma
[15] = test system: HS 578T breast
[16] = test system: NCI/ADR-RES ovarian
[17] = test system: OVCAR-3 ovarian
[18] = test system: TK-10 renal
[19] = test system: MCF7 breast
[20] = test system: SF-295 CNS
[21] = test system: M14 melanoma
[22] = test system: HT29 colon
[23] = test system: NCI-H23 lung
[24] = test system: SN12C renal
[25] = test system: OVCAR-5 ovarian
[26] = test system: MALME-3M melanoma
[27] = test system: SF-268 CNS
[28] = test system: SK-OV-3 ovarian
[29] = test system: HOP-62 NSCLC
[30] = test system: SK-MEL-2 melanoma
[31] = test system: ACHN renal
[32] = test system: K-562 leukemia
[33] = test system: MOLT-4 leukemia
[34] = test system: IGROV1 ovarian
[35] = test system: PC-3 prostate
[36] = test system: MDA-MB-231 breast
[37] = test system: KM12 colon
[38] = test system: SW-620 colon
[39] = test system: CCRF-CEM leukemia
[40] = test system: 786-0 renal
[41] = test system: NCI-H522 lung
[42] = test system: HCT-116 colon
[43] = test system: SR leukemia
[44] = test system: HCT-15 colon
[45] = test system: UO-31 renal
[46] = test system: LOX IMVI melanoma
[47] = test system: EKVX NSCLC
[48] = test system: A549 NSCLC
[49] = test system: DU-145 prostate
[50] = test system: NCI-H460 lung
[51] = test system: CAKI-1 renal
[52] = test system: SF-539 CNS
[53] = test system: T-47D breast
[54] = test system: HL-60(TB) leukemia
[55] = test system: RXF 393 renal
[56] = test system: UACC-257 melanoma
[57] = test system: OVCAR-4 ovarian
[58] = test system: HCC-2998 colon
[59] = test system: BT-549 breast

For `O=C1/C(=C/c2ccc(Cl)cc2)NC(=S)N1CN1CCCCC1`, the TGI [1] was 68.7 µM, the TGI [2] was > 100 µM and the TGI [3] was > 100 µM. For the same molecule, the TGI [4] was 54.4 µM, the TGI [5] was > 100 µM and the TGI [6] was > 100 µM. The TGI [7] was > 100 µM, the TGI [8] was 64.1 µM and the TGI [9] was > 100 µM. The TGI [10] was > 100 µM, the TGI [11] was 76.5 µM and the TGI [12] was > 100 µM. For the same molecule, the TGI [13] was > 100 µM, the TGI [14] was 97.4 µM and the TGI [15] was 62 µM. The TGI [16] was 72 µM, the TGI [17] was > 100 µM and the TGI [18] was > 100 µM. For the same molecule, the TGI [19] was 82.1 µM, the TGI [20] was > 100 µM and the TGI [21] was > 100 µM. The TGI [22] was 29.3 µM, the TGI [23] was > 100 µM and the TGI [24] was > 100 µM. For the same molecule, the TGI [25] was > 100 µM, the TGI [26] was 88.7 µM and the TGI [27] was 78.8 µM. For the same molecule, the TGI [28] was > 100 µM, the TGI [29] was > 100 µM and the TGI [30] was > 100 µM. For the same molecule, the TGI [31] was > 100 µM, the TGI [32] was > 100 µM and the TGI [33] was > 100 µM. For the same molecule, the TGI [34] was > 100 µM, the TGI [35] was > 100 µM and the TGI [36] was > 100 µM. The TGI [37] was > 100 µM, the TGI [38] was 45.3 µM and the TGI [39] was 78.2 µM. For the same molecule, the TGI [40] was > 100 µM, the TGI [41] was 49.3 µM and the TGI [42] was > 100 µM. The TGI [43] was > 100 µM, the TGI [44] was 58.2 µM and the TGI [45] was > 100 µM. For the same molecule, the TGI [46] was > 100 µM, the TGI [47] was > 100 µM and the TGI [48] was > 100 µM. For the same molecule, the TGI [49] was > 100 µM.
`C[N+](C)(C)CC(=O)N/N=C\c1c(O)ccc2ccccc12` was tested, and the TGI [1] was > 100 µM, the TGI [50] was 70.5 µM and the TGI [2] was > 100 µM. For the same molecule, the TGI [3] was > 100 µM, the TGI [4] was > 100 µM and the TGI [5] was > 100 µM. The TGI [6] was 97.8 µM, the TGI [7] was > 100 µM and the TGI [8] was > 100 µM. The TGI [51] was > 100 µM, the TGI [52] was > 100 µM and the TGI [9] was 71.1 µM. The TGI [53] was > 100 µM, the TGI [10] was > 100 µM and the TGI [11] was > 100 µM. The TGI [54] was 43.3 µM, the TGI [12] was 59.3 µM and the TGI [13] was 85.9 µM. For the same molecule, the TGI [14] was 39.3 µM, the TGI [15] was 56.5 µM and the TGI [16] was > 100 µM. For the same molecule, the TGI [17] was > 100 µM, the TGI [55] was 82.5 µM and the TGI [18] was > 100 µM. For the same molecule, the TGI [19] was > 100 µM, the TGI [20] was > 100 µM and the TGI [21] was > 100 µM. For the same molecule, the TGI [22] was > 100 µM, the TGI [23] was > 100 µM and the TGI [24] was > 100 µM. For the same molecule, the TGI [25] was > 100 µM, the TGI [26] was 38.3 µM and the TGI [27] was 69.8 µM. The TGI [28] was > 100 µM, the TGI [29] was > 100 µM and the TGI [30] was > 100 µM. The TGI [31] was > 100 µM, the TGI [32] was > 100 µM and the TGI [33] was 51.7 µM. For the same molecule, the TGI [34] was > 100 µM, the TGI [35] was > 100 µM and the TGI [56] was > 100 µM. The TGI [36] was > 100 µM, the TGI [37] was > 100 µM and the TGI [38] was > 100 µM. For the same molecule, the TGI [39] was 76.1 µM, the TGI [40] was > 100 µM and the TGI [41] was 53.6 µM. For the same molecule, the TGI [42] was > 100 µM, the TGI [57] was > 100 µM and the TGI [43] was > 100 µM. The TGI [44] was > 100 µM, the TGI [45] was > 100 µM and the TGI [46] was > 100 µM. For the same molecule, the TGI [47] was > 100 µM, the TGI [48] was > 100 µM and the TGI [49] was > 100 µM.
`CC(C)c1c(C(=O)Nc2ccccc2)c(-c2ccccc2)c(-c2ccc(F)cc2)n1CC[C@@H](O)C[C@@H](O)CC(=O)O` was tested, and the GI50 [1] was 10.5 µM, the TGI [1] was > 100 µM and the GI50 [50] was 41.3 µM. The TGI [50] was > 100 µM, the GI50 [2] was 18.2 µM and the TGI [2] was > 100 µM. For the same molecule, the GI50 [3] was 15.1 µM, the TGI [3] was > 100 µM and the GI50 [4] was 6.59 µM. For the same molecule, the TGI [4] was 51.5 µM, the GI50 [5] was 20.4 µM and the TGI [5] was > 100 µM. It also gave a GI50 [6] of 0.516 µM, a TGI [6] of 4.52 µM and a GI50 [8] of 24.5 µM. For the same molecule, the TGI [8] was > 78.9 µM, the GI50 [51] was 11.9 µM and the TGI [51] was 32.8 µM. The GI50 [52] was 25.6 µM, the TGI [52] was > 100 µM and the GI50 [9] was 2.09 µM. The TGI [9] was > 26.5 µM, the GI50 [53] was 32.1 µM and the TGI [53] was > 100 µM. For the same molecule, the GI50 [10] was 4.48 µM, the TGI [10] was > 100 µM and the GI50 [11] was 16.6 µM. For the same molecule, the TGI [11] was > 100 µM, the GI50 [54] was 20.9 µM and the TGI [54] was > 96.7 µM. The GI50 [58] was 27.4 µM, the TGI [58] was > 71.5 µM and the GI50 [12] was 0.211 µM. The TGI [12] was 2.14 µM, the GI50 [13] was 25.5 µM and the TGI [13] was > 100 µM. It also gave a GI50 [14] of 9.95 µM, a TGI [14] of 25.4 µM and a GI50 [15] of 15.6 µM. The TGI [15] was > 100 µM, the GI50 [16] was 40.8 µM and the TGI [16] was > 100 µM. For the same molecule, the GI50 [17] was 33.1 µM, the TGI [17] was > 100 µM and the GI50 [55] was 8.75 µM. For the same molecule, the TGI [55] was 47.2 µM, the GI50 [18] was 45.5 µM and the TGI [18] was > 100 µM. For the same molecule, the GI50 [19] was 27.5 µM, the TGI [19] was > 100 µM and the GI50 [20] was 6.74 µM. For the same molecule, the TGI [20] was > 60.6 µM, the GI50 [21] was 19.1 µM and the TGI [21] was > 100 µM. For the same molecule, the GI50 [22] was 50.3 µM, the TGI [22] was > 100 µM and the GI50 [23] was 31 µM. For the same molecule, the TGI [23] was > 100 µM, the GI50 [24] was 7.56 µM and the TGI [24] was > 100 µM. For the same molecule, the GI50 [25] was 57.2 µM, the TGI [25] was > 100 µM and the GI50 [26] was 52.8 µM. The TGI [26] was > 100 µM, the GI50 [27] was 6.64 µM and the TGI [27] was > 100 µM. For the same molecule, the GI50 [28] was 63.7 µM, the TGI [28] was > 100 µM and the GI50 [29] was 36 µM. The TGI [29] was > 100 µM, the GI50 [30] was 2.24 µM and the TGI [30] was 7.49 µM. For the same molecule, the GI50 [31] was 6.67 µM, the TGI [31] was > 91.2 µM and the GI50 [32] was 31.2 µM. The TGI [32] was > 100 µM, the GI50 [33] was 28.8 µM and the TGI [33] was 99.2 µM. The GI50 [34] was 22.2 µM, the TGI [34] was > 100 µM and the GI50 [35] was 7.31 µM. For the same molecule, the TGI [35] was > 100 µM, the GI50 [56] was 41.5 µM and the TGI [56] was > 100 µM. For the same molecule, the GI50 [36] was 1.61 µM, the TGI [36] was 6.63 µM and the GI50 [37] was 40.2 µM. The TGI [37] was > 100 µM, the GI50 [38] was 22.2 µM and the TGI [38] was > 100 µM. The GI50 [39] was 21.4 µM, the TGI [39] was > 100 µM and the GI50 [40] was 22.3 µM. The TGI [40] was > 81.2 µM, the GI50 [41] was 3.73 µM and the TGI [41] was > 47.3 µM. For the same molecule, the GI50 [42] was 10.1 µM, the TGI [42] was > 100 µM and the GI50 [57] was 27.8 µM. For the same molecule, the TGI [57] was > 100 µM, the GI50 [43] was 4.35 µM and the TGI [43] was 39 µM. The GI50 [44] was 7.69 µM, the TGI [44] was > 100 µM and the GI50 [45] was 30.2 µM. The TGI [45] was > 100 µM, the GI50 [46] was 3.11 µM and the TGI [46] was 22.9 µM. It also gave a GI50 [59] of 15.6 µM, a TGI [59] of 41.7 µM and a GI50 [47] of 49.4 µM. The TGI [47] was > 100 µM, the GI50 [48] was 56.5 µM and the TGI [48] was > 100 µM. For the same molecule, the GI50 [49] was 52.5 µM and the TGI [49] was > 100 µM.

From PubChem BioAssay (NCI)
